Test system: MIA-induced OA rats
Experiment: Analgesic action to MIA-induced osteoarthritis model rats (von Frey test, 50% reaction threshold to mechanical stimulus)
Assay type: in vivo, rat (male Wistar)
Conditions: Rattus norvegicus, ip, single intraperitoneal dose of 200 μg/kg, von Frey test after 1 hour from administration, normal threshold value 15, read-out: Recovery rate of 50% reaction threshold value (%)
Procedure: Pharmacological Test I: Analgesic Action to Osteoarthritis Model Rats
There were conducted the following experiments for testing the analgesic action of the analgesic of the present invention using the osteoarthritis (OA) rats induced by sodium monoiodoacetate (MIA) which were model animals for OA.
(1) Preparation of MIA-Induced OA Rats
A 50% reaction threshold value to the mechanical stimulus of male Wistar rats of six weeks age was measured (the measuring method will be mentioned later) and a normal control group was selected. MIA prepared by saline was administered in a single dose of 300 μg/50 μL into right knee joint of the rats except the normal control group while 50 μL of saline was administered into left knee joint whereupon the MIA-induced OA rats were prepared. To the normal control group, 50 μL of saline was administered into the joints of both knees.
With regard to the male Wistar rats of six weeks age used as experimental animals except the normal control group, their 50% reaction threshold values to the mechanical stimulus (the measuring method will be mentioned later) and body weights were measured after […] from the administration of MIA mentioned in (1) and then 3 groups each comprising six rats [a normal control group, an onset control group and a test drug-administered group] were organized.
(3) Administration of Test Drug
A test drug solution (100 μg/mL) using the compound according to the analgesic of the present invention as a test drug was prepared using a phosphate buffered saline (PBS) containing 0.1 vol % of dimethyl sulfoxide (DMSO).
Immediately after the grouping (after 14 days from the administration of MIA), a test drug solution was intraperitoneally administered in a single dose of 200 μg/kg to a test drug-administered group. Meanwhile, to the normal control group and the onset control group, PBS containing 0.1 vol % of DMSO was intraperitoneally administered in a single dose.
(4) Result of Measurement of the 50% Reaction Threshold Values to the Mechanical Stimulus (Von Frey Test)
The three groups of rats of the above (2) were placed in a transparent acrylic cage with a wire-meshed floor and habituated for about three minutes and the 50% reaction threshold values to the mechanical stimulus were measured after 1 hour from the administration of a test drug. The measurement was conducted using von Frey filaments (manufactured by North Coast Medical Inc.) in accordance with the methods of Chaplan, et al. (Journal of Neuroscience Methods, vol. 53, no. 1, pages 55 to 63, 1994) and Dixon, et al. (Annual Review of Pharmacology and Toxicology, vol. 20, pages 441 to 462, 1980). […] The case where the rat escaped at the instance of removing the filament was also called positive. When the positive reaction was noted, stimulus was conducted similarly using a filament of one rank weaker while, when no reaction was noted, stimulus was conducted similarly using a filament of one rank stronger and the point when the reaction changed from negative to positive or from positive to negative was called the first two reactions. After that, stimulus was conducted for continuous four times by the same up-down method. A 50% reaction threshold value to the mechanical stimulus was measured using the reaction to the six stimuli in total and then (mean value)±(standard error) for each group was calculated. Incidentally, when stimulus reached by that of 15.0 g without positive reaction or, when positive reaction continued to 0.4 g, then 15.0 g or 0.25 g was adopted as each threshold value, respectively.
With regard to the 50% reaction threshold value after 1 hour from administration of a test drug, a recovery rate (%) of the 50% reaction threshold value was calculated by the following expression in which 15 was adopted as the normal threshold value. […]

SMILES	inhibition in vivo at 0.2 mg/kg
CCCCCCC/C=C/C(=O)OCCN(C)C [Compound 1, (E)-2-(dimethylamino)ethyl dec-2-enoate]	25.5%
CCCCCCC/C=C/C(=O)OCCSC(C)C [Compound 8, (E)-2-(isopropylthio)ethyl dec-2-enoate]	28.9%
CCCCCCC/C=C/C(=O)OCCOC [Compound 9, (E)-2-methoxyethyl dec-2-enoate]	13%
CCCCCCC/C=C/C(=O)NCC(C)C [Compound 18, (E)-N-isobutyl dec-2-enamide]	49%
CCCCCCC/C=C/C(=O)NCCCCCC [Compound 22, (E)-N-hexyl dec-2-enamide]	44.3%
CCCCCCC/C=C/C(=O)NC1CCCCC1 [Compound 27, (E)-N-cyclohexyl dec-2-enamide]	5.8%
CCCCCCC/C=C/C(=O)NCCN(CC)CC [Compound 37 (Citrate), (E)-N-2-(diethylamino)ethyl dec-2-enamide]	45.1%
CCCCCCC/C=C/C(=O)N(CC)CCN(CC)CC [Compound 44 (Citrate), (E)-N-(2-(diethylamino)ethyl)-N-ethyl dec-2-enamide]	21.7%
CCCCCCC/C=C/C(=O)N(CCN(C)C)CCN(C)C [Compound 45, (E)-N,N-bis(2-(dimethylamino)ethyl) dec-2-enamide]	10.2%
CCCCCCC/C=C/C(=O)SCCCCCC [Compound 50, (E)-S-hexyl dec-2-enethioate]	15.6%
CCCCCCC/C=C/C(=O)SCCN(CC)CC [Compound 56, (E)-S-2-(diethylamino)ethyl dec-2-enethioate]	21.8%

From patent US20150297562A1, “ANALGESIC” (NIPPON ZOKI PHARMACEUTICAL CO., LTD., priority 2012, published 2015)
